Positions of bridges follow the written chain, without caps; N, C: chain ends. Residues, ends and D or L forms follow the SMILES beside them.
What was measured:
[1] = test system: male mice of the C57BL/6 strain; experiment: In vivo mouse study: white blood cell, neutrophil and lymphocyte populations after 14 days of subcutaneous dosing; settings: for Lymphocytes / Neutrophils / White Blood Cells: Day 14 blood, s.c. over 14 days, peptide 80 μg/kg once daily, G-CSF 10 μg/kg once daily, EPO 600 IU/kg Days 1, 4, 7, 10, 14, group mean; for increase in neutrophil population compared to mice in the control group / increase in the white blood cell population compared to mice in the control group: Day 14, vs control group without any treatment
From the text: In vivo Test System. Mouse was selected as the in vivo test system. Sufficient male mice of the C57BL/6 strain was obtained. The animals was obtained as weanlings of about 24-27 days of age on arrival. At randomization, their body weights were within ±20% of the overall mean for each sex. The health care and welfare of the mice were maintained in accordance with the requirement of the Animals (Scientific Procedures) Act 1986 UK. All animals were given clinical inspection for ill health on arrival. They were acclimatized for about three weeks and a veterinary inspection was performed before the start of dosing to ensure their suitability for study. The mice were assigned to treatment groups during the acclimatization period using a total randomization procedure. Group mean body weights were calculated and inspected to ensure there were no unacceptable difference between groups.
Preparation of Administered Formulation of [Leu^27]cyclo(Glu^22-Lys^26)-hPTH-(1-31)-NH2. The bulk freeze-dried peptide [Leu^27]cyclo(Glu^22-Lys^26)-hPTH-(1-31)-NH2 (SEQ ID NO: 4) was dissolved in 0.01 M acetic acid. The concentration of peptide in the solution was 1 μg/μL. The solution was re-aliquotted into dosing vials and kept frozen at approximately −70° C. The vials were then freeze-dried at the temperature lower than −20° C. and stored frozen until required. The freeze-dried aliquots for injection was reconstituted daily. The peptide was dissolved in an appropriate volume of purified water to an approximate concentration of 2-3 mg/mL. The phosphate-buffered saline (pH=7.4) was added to give the final required concentration and the pH value of the final solution is approximately 7.2. The capped vials were mixed thoroughly to ensure peptide was fully dissolved prior to use. Aseptic techniques and glass vials were used throughout dose preparation.
Preparation of Administered Formulation of G-CSF. G-CSF was provided at a concentration of 300 μg/mL in sorbito, sodium acetate and polysorbate 80 in water for injection. The stock solution was diluted accordingly with water for injection to provide the correct dosing concentration.
Preparation of Administered Formulation of EPO. EPO was provided at a concentration of 40,000 IU/mL in polysorbate 80, sodium chloride, sodium dihydrogen phosphate dihydrate, disodium phosphate dihydrate, glycine and water for injection. The stock solution was diluted accordingly with phosphate buffered solution to provide the correct dosing concentration.
In vivo Mouse Study. The peptide [Leu^27]cyclo(Glu^22-Lys^26)-hPTH-(1-31 )-NH2 (SEQ ID NO: 4), G-CSF or EPO were administered subcutaneously over 14 days. The mice were dosed as follows:
The peptide [Leu^27]cyclo(Glu^22-Lys^2 1)-hPTH-(1-3 I)-NH2 was administered to all mice in Groups 2, 3, 4 and 5 once daily for fourteen days at a dose level of 80 μg/kg.
Mice in Group 3, 4 and 5 also received EPO and/or G-CSF. EPO was administered on Days 1, 4, 7, 10 and 14 at a dose of 600 IU/kg. G-CSF was administered once daily for fourteen days at a dose level of 10 μg/kg.
Mice in 6, 7, 8 received EPO and/or G-CSF. EPO was administered on Days 1, 4, 7, 10 and 14 at a dose level of 600 IU/kg. G-CSF was administered once daily for fourteen days at a dose level of 10 μg/kg.
On Day 14, blood samples (0.5 mL EDTA nominal, 0.6 mL lithium heparin nominal) were withdrawn from all mice and were collected into lithium heparin tubes. The tubes were centrifuged and the plasma were separated and analyzed.

healthy older volunteers = experiment: Phase I clinical trial: changes in blood cell populations from baseline to Day 7; assay type: in vivo, human; settings: for effect on white blood cell population, especially neutrophil population: healthy adults, compared to placebo
Method: A Phase I, single-center, randomized double blind, placebo-controlled, multiple-escalating-dose study in healthy older volunteers was carried out for the peptide [Leu^27]cyclo(Glu^22-Lys^2 1)-hPTH-(1-31)-NH2 (SEQ ID NO: 4). Subjects were healthy males and females (non-reproductive potential), aged 40 to 65 years. […] Subcutaneous injections of placebo or the peptide with a dosage of 10 μg, 20 μg, 40 μg, 60 μg, or 80 μg was administered daily for 7 days. For each dosage level, 2 subjects (I male and I female) received placebo and 6 subjects (3 males and 3 females) received the peptide daily.
The number of white blood cells and the number neutrophils in a subject treated with the peptide increase as the dosage increases until it reaches the maximum at the dosage level of 60 μg. Increase in the number of white blood cells in subject treated with 60 μg of [Leu^27]cyclo(Glu^22-Lys^26)-hPTH-(1-31)-NH2 at Day 7 from the baseline level was about 8 times of that in subjects treated with placebo.

EPO: erythropoietin, an erythropoiesis regulator
Lymphocytes [1]: 3.5 ± 1.12 1000/cmm | Neutrophils [1]: 0.5 ± 0.49 1000/cmm | White Blood Cells [1]: 4.3 ± 1.56 1000/cmm

CC[C@H](C)[C@H](NC(=O)[C@H](CCC(=O)O)NC(=O)[C@H](CO)NC(=O)[C@@H](NC(=O)[C@@H](N)CO)C(C)C)C(=O)N[C@@H](CCC(N)=O)C(=O)N[C@@H](CC(C)C)C(=O)N[C@@H](CCSC)C(=O)N[C@@H](Cc1c[nH]cn1)C(=O)N[C@@H](CC(N)=O)C(=O)N[C@@H](CC(C)C)C(=O)NCC(=O)N[C@@H](CCCCN)C(=O)N[C@@H](Cc1c[nH]cn1)C(=O)N[C@@H](CC(C)C)C(=O)N[C@@H](CC(N)=O)C(=O)N[C@@H](CO)C(=O)N[C@@H](CCSC)C(=O)N[C@@H](CCC(=O)O)C(=O)N[C@@H](CCCNC(=N)N)C(=O)N[C@H](C(=O)N[C@H]1CCC(=O)NCCCC[C@@H](C(=O)N[C@@H](CC(C)C)C(=O)N[C@@H](CC(C)C)C(=O)N[C@@H](CCC(N)=O)C(=O)N[C@@H](CC(=O)O)C(=O)N[C@H](C(N)=O)C(C)C)NC(=O)[C@H](CCCNC(=N)N)NC(=O)[C@H](CC(C)C)NC(=O)[C@H](Cc2c[nH]c3ccccc23)NC1=O)C(C)C [[Leu^27]cyclo(Glu^22-Lys^26)-hPTH-(1-31)-NH2] (H-SVSEIQLMHNLGKHLNSMERVEWLRKLLQDV-NH2; lactam 22-26; N-terminus assumed)
increase in lymphocyte population ([1]; Day 14, vs control group): ~20% | increase in neutrophil population compared to mice in the control group [1]: ~75% | increase in the white blood cell population compared to mice in the control group [1]: ~26% | Lymphocytes [1]: 3.7 ± 1.92 1000/cmm | Neutrophils [1]: 0.7 ± 0.35 1000/cmm | White Blood Cells [1]: 4.8 ± 2.13 1000/cmm | Neutrophil, change in mean from baseline to Day 7 (healthy older volunteers; 10 μg s.c. daily for 7 days): 1.22 x e^9/L | Platelet, change in mean from baseline to Day 7 (healthy older volunteers; 10 μg s.c. daily for 7 days): 19.80 x e^9/L | Relative Neutrophil Count, change in mean from baseline to Day 7 (healthy older volunteers; 10 μg s.c. daily for 7 days): 4% | White Blood Cells, change in mean from baseline to Day 7 (healthy older volunteers; 10 μg s.c. daily for 7 days): 1.50 x e^9/L | Neutrophil, change in mean from baseline to Day 7 (healthy older volunteers; 20 μg s.c. daily for 7 days): 1.22 x e^9/L | Platelet, change in mean from baseline to Day 7 (healthy older volunteers; 20 μg s.c. daily for 7 days): 16.83 x e^9/L | Relative Neutrophil Count, change in mean from baseline to Day 7 (healthy older volunteers; 20 μg s.c. daily for 7 days): 3% | White Blood Cells, change in mean from baseline to Day 7 (healthy older volunteers; 20 μg s.c. daily for 7 days): 1.75 x e^9/L | Neutrophil, change in mean from baseline to Day 7 (healthy older volunteers; 40 μg s.c. daily for 7 days): 2.88 x e^9/L | Platelet, change in mean from baseline to Day 7 (healthy older volunteers; 40 μg s.c. daily for 7 days): 28.50 x e^9/L | Relative Neutrophil Count, change in mean from baseline to Day 7 (healthy older volunteers; 40 μg s.c. daily for 7 days): 12% | White Blood Cells, change in mean from baseline to Day 7 (healthy older volunteers; 40 μg s.c. daily for 7 days): 3.23 x e^9/L | Increase in the number of white blood cells at Day 7 from baseline relative to that in subjects treated with placebo (healthy older volunteers; 60 μg s.c. daily for 7 days): about 8 times | Neutrophil, change in mean from baseline to Day 7 (healthy older volunteers; 60 μg s.c. daily for 7 days): 4.53 x e^9/L | Platelet, change in mean from baseline to Day 7 (healthy older volunteers; 60 μg s.c. daily for 7 days): 47.83 x e^9/L | Relative Neutrophil Count, change in mean from baseline to Day 7 (healthy older volunteers; 60 μg s.c. daily for 7 days): 16% | White Blood Cells, change in mean from baseline to Day 7 (healthy older volunteers; 60 μg s.c. daily for 7 days): 4.65 x e^9/L | Neutrophil, change in mean from baseline to Day 7 (healthy older volunteers; 80 μg s.c. daily for 7 days): 4.40 x e^9/L | Platelet, change in mean from baseline to Day 7 (healthy older volunteers; 80 μg s.c. daily for 7 days): 39.50 x e^9/L | Relative Neutrophil Count, change in mean from baseline to Day 7 (healthy older volunteers; 80 μg s.c. daily for 7 days): 17% | White Blood Cells, change in mean from baseline to Day 7 (healthy older volunteers; 80 μg s.c. daily for 7 days): 4.40 x e^9/L | increase in population of neutrophils at Day 7 relative to that for subjects treated with placebo (healthy older volunteers; Day 7, s.c. daily for 7 days): about 50 fold | platelet count (healthy older volunteers; dosage level of 60 μg and 80 μg, s.c. daily for 7 days): Significant increase | effect on white blood cell population, especially neutrophil population (healthy older volunteers; s.c. daily for 7 days): significant stimulating effect | effect on white blood cell population, especially neutrophil population (healthy older volunteers; s.c. daily for 7 days, listed as cyclic peptide of SEQ ID NO: 4): significant increase

B1: G-CSF: granulocyte colony-stimulating factor, a hematopoietic growth factor (protein, UniProt P09919 31-207, looked up)
Granulocyte …: TPLGPASSLPQSFLLKCLEQVRKIQGDGAALQEKLVSECATYKLCHPEELVLLGHSLGIPWAPLSSCPSQALQLAGCLSQLHSGLFLYQGLLQALEGISPELGPTLDTLQLDVADFATTIWQQMEELGMAPALQPTQGAMPAFASAFQRRAGGVLVASHLQSFLEVSYRVLRHLAQP
increase in neutrophil population compared to mice in the control group [1]: ~175% | increase in the white blood cell population compared to mice in the control group [1]: ~20% | Lymphocytes [1]: 3.0 ± 1.30 1000/cmm | Neutrophils [1]: 1.1 ± 0.25 1000/cmm | White Blood Cells [1]: 4.5 ± 1.36 1000/cmm
